# Several values for one entry are separate records, joined by “and”; a condition that tells them apart may be missing. Equal values may be shown once.
# Experiments:
# normal human blood cells = test: MTT assay, normal human blood cells, 72 h; type: cell-based; details: Normal Blood Cell
# Method: Leukemia cell strains: Sup-B15 (Ph+acute lymphoblastic leukemia), CEM (acute lymphoblastic leukemia, ALL), and Molt-4 (acute lymphoblastic leukemia, ALL). Normal blood cell samples: peripheral blood from healthy volunteers. • Primary reagent: 14-D-Valine-TPL of the invention. Primary instruments: cell incubator and microplate reader. (2) Experimental Method
# (§1) 5000 well-grown leukemia cells or normal human blood cells were taken and seeded into wells of a 96-well cell culture plate. The medium was 1640 cell medium containing 10% fetal bovine serum. 14-D-Valine-TPL with different concentrations was added, and after being uniformly mixed, the plate was placed in a carbon dioxide (5% CO2) cell incubator, and incubated at 37° C. for 72 hours. The concentration of live cells was then determined using the MTT assay. In this experiment, the cell viability in the control group (without the compound treatment) was set to be 100%, and the cell viability (%) after the action of the compound the half maximal growth inhibitory concentration of leukemia cells at 72 hours (IC50 value at 72 hours) and the therapeutic window index were calculated. Therapeutic window index=IC50 value of normal blood cells/IC50 value of leukemia cells. […] A larger therapeutic window indicates a better selectivity of the compound for tumor cells.
# HL-60 = test: MTT growth inhibition, HL-60 cells, 72 h; type: cell-based; details: Homo sapiens, HL-60, MTT
# Method: 5000 well-grown leukemia cells were taken and seeded into wells of a 96-well cell culture plate. The medium was 1640 cell medium containing 10% fetal bovine serum. 14-D-Valine-TPL with different concentrations was added, and after being uniformly mixed, the plate was placed in a carbon dioxide (5% CO2) cell incubator, and incubated at 37° C. for 72 hours. The concentration of live cells was then determined using the MTT assay. In this experiment, the cell viability in the control group (without the compound treatment) was set to be 100%, and the cell viability (%) after the action of the compound and the half maximal growth inhibitory concentration of leukemia cells at 72 hours (IC50 value at 72 hours) were calculated.
# [1] = tested on: human acute myelogenous leukemia KG-1a cells; test: KG-1a subcutaneous xenograft in NOD/SCID mice; type: in vivo; details: for Tumor weight: KG-1a, individual mice, end of experiment
# Method: (§2) 7-week old female NOD/SCID mice were taken and inoculated subcutaneously with 1×10^7 cells (0.2 ml) per mouse in axilla, with human acute myelogenous leukemia KG-1a cells on the left and human acute monocytic leukemia THP-1 cells on the right. When tumors grew to a tumor size of around 0.5 cm, the mice were randomized into groups with 3 mice each. An equivalent amount of PBS was used for the control group, and the 14-D-Valine-TPL group was divided into two groups with 0.2 mg/kg body weight and 0.4 mg/kg body weight: intragastric administration 2 times a day (one at 8 a.m. and one at 4 p.m.) for consecutive 14 days of treatment. An observation was made for total 30 days, during which the conditions of the mice such as tumor size, weight, activity, diet, and the like were measured. At the end of the experiment, the mice were sacrificed, tumor tissues were taken and the tumors were weighed, and major organs and tissues of the mice such as liver, spleen, heart, lung, large intestine, small intestine, and the like were examined.
# as §2, with “the left.” for “the left and human acute monocytic leukemia THP-1 cells on the right.”, “around 50-100 mm^3,” for “around 0.5 cm,”, “the TPL-LLV” for “the 14-D-Valine-TPL”, “with 0.23” for “with 0.2”, “and 0.46” for “and 0.4”, “intragastric administration,” for “intragastric administration”
# as §2, with “the left.” for “the left and human acute monocytic leukemia THP-1 cells on the right.”, “around 50-100 mm^3,” for “around 0.5 cm,”, “the TPL-DLV” for “the 14-D-Valine-TPL”, “with 0.23” for “with 0.2”, “and 0.46” for “and 0.4”, “intragastric administration,” for “intragastric administration”
# as §2, with “the left.” for “the left and human acute monocytic leukemia THP-1 cells on the right.”, “around 50-100 mm^3,” for “around 0.5 cm,”, “the TPL-DLV” for “the 14-D-Valine-TPL”, “with 0.32” for “with 0.2”, “and 0.64” for “and 0.4”, “intragastric administration,” for “intragastric administration”
# XPB = biological target: T1, XPB (Homo sapiens, UniProt P19447); test: Immunoblot of XPB level in THP-1 cells, 48 h; type: cell-based; details: 160 nM
# T1 construct: endogenous in cells; host or cells: THP-1
# Method: (§3) Well-grown leukemia cells were taken and seeded into wells of a 6-well cell culture plate, with a density of 1×10^6/ml. The medium was 1640 cell medium containing 10% fetal bovine serum. 14-D-Valine-TPL with different concentrations was added, and after being uniformly mixed, the plate was placed in a carbon dioxide (5% CO2) cell incubator, and incubated at 37° C. for 48 hours. Cellular proteins were then extracted, and the immunoblot technique was used to detect the expression levels of XPB and Pol II.
# [2] = tested on: RNA polymerase II (Pol II); test: Immunoblot of Pol II level in THP-1 cells, 48 h; type: cell-based, human; details: 160 nM
# Method: as §3
# [3] = tested on: human leukemia cells (Jurkat, CEM, Molt-4, Sup-B15); test: Therapeutic window over 4 types of human leukemia cells (MTT); type: cell-based; details: for 4 different types of human leukemia cells
# Method: as §1
# T1 sequence (P19447 whole entry): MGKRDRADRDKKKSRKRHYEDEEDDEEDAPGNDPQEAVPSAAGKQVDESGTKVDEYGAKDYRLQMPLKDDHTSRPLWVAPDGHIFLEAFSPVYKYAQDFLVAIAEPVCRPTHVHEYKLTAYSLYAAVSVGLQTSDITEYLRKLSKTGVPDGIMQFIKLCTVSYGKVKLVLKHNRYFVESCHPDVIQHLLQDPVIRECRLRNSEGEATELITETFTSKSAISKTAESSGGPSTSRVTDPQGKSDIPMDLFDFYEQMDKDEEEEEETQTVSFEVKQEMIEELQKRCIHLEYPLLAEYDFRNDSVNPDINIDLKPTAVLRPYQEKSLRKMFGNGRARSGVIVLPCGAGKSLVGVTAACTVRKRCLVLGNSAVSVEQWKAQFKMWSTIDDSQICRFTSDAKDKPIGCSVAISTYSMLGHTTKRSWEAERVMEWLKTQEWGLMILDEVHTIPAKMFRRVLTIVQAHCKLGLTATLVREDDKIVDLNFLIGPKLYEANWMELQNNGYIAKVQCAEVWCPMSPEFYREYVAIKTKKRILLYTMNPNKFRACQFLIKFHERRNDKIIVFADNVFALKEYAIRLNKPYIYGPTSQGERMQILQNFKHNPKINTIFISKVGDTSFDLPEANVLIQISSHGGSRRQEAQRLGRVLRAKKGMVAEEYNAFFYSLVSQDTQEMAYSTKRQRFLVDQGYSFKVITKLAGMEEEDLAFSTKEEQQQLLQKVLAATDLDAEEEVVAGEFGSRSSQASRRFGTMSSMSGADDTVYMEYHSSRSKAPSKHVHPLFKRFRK
structure (smiles),measurement,setting,value
"CC(C)[C@@H](N)C(=O)O[C@@H]1[C@@]2(C(C)C)O[C@H]2[C@@H]2O[C@]23[C@]12O[C@H]2C[C@H]1C2=C(CC[C@@]13C)C(=O)OC2 [14-D-Valine-TPL, 14-Dextro-Valine-Triptolide]",IC50,"normal human blood cells; Homo sapiens, 72 h, Overall, MTT",0.201 µM
same,IC50,"normal human blood cells; Homo sapiens, 72 h, individual healthy volunteers No1-No9, MTT",0.203 µM
same,IC50,"normal human blood cells; individual healthy volunteers No1-No9, MTT",0.199 µM and 0.206 µM and 0.2 µM and 0.214 µM and 0.19 µM and 0.204 µM and 0.185 µM and 0.211 µM
same,IC50,HL-60,0.0658 µM
same,growth of KG-1a in mice in vivo (in words),"[1]; KG-1a xenograft, intragastric 2 times a day, 14 days, dose-dependent effect",significantly inhibit the growth
same,Tumor weight,"[1]; trifluoroacetate 0.2 mg/kg intragastric 2 times a day, 14 days, listed as DV",0.42 g and 1.49 g and 0.06 g and 0.98 g and 0.2 g and 0.5 g
same,Tumor weight,"[1]; trifluoroacetate 0.4 mg/kg intragastric 2 times a day, 14 days",0 g
same,regression of KG-1a xenograft tumors,[1]; dose of 0.4 mg per kilogram of the body weight,complete regression
same,level of XPB (immunoblot),XPB,significantly inhibited
same,level of Pol II (immunoblot),[2],significantly inhibited
same,therapeutic window indices,[3],5.54-18.58

# — patent US10238623B2, “C14-hydroxyl esterified amino acid derivative of triptolide, and preparation method and use thereof” (HANGZHOU WEBEN PHARMACEUTICALS INC, priority 2015, dated 2019)
